From PubChem BioAssay AID1996 come the findings set out here.

Converted amounts (≈) assume the structure as drawn.

The conditions of this data set: buffer; pH 7.4; 200.0 µM.
With `COc1ccc(C2(C)NC(=O)N(CC(=O)NCC(=O)Nc3ccc(F)c(F)c3F)C2=O)cc1OC` (stereo unspecified), the solubility (kinetic) (usually the concentration staying in solution when a stock, usually in DMSO, is diluted into the medium) was 0.5 µg/mL (≈ 1.01 µM).
Then `CCS(=O)(=O)N1CCCC(C(=O)c2ccc(OC)cc2C)C1` (stereo unspecified), with 42 µg/mL (≈ 129 µM).
As for `O=C(O)CC1S/C(=N/N=C/c2ccccn2)NC1=O` (stereo unspecified), the kinetic solubility is above 41.7 µg/mL.
Then `CCc1ccc(C(=O)NC(=S)NCc2cccnc2)cc1`, with 39.9 µg/mL (≈ 133 µM).
Consider `O=C(O)c1cccc2c1C(=O)N(CC1CCCO1)C2` (stereo unspecified), for which the kinetic solubility is above 39.2 µg/mL.
Turning to `O=C(c1cc(-c2ccc(Cl)cc2)on1)N1CCCC1`, the solubility (kinetic) worked out at 1.4 µg/mL (≈ 5.06 µM).
Then `CCOC(=O)c1sc(NC(=O)CC)c(C#N)c1C`, with 1.4 µg/mL (≈ 5.26 µM); and `O=C(Nc1ccccc1[N+](=O)[O-])C1COc2ccccc2O1` (stereo unspecified), with 1 µg/mL (≈ 3.33 µM).
Then `CCC[C@@H]1C[C@@H](C(=O)N[C@@H]([C@H]2O[C@H](SC)[C@H](O)[C@@H](O)[C@@H]2O)[C@@H](C)O)N(C)C1.Cl`, with above 66.5 µg/mL; and `COc1cccc(C(=O)Nc2ccc3c(C)cc(=O)oc3c2)c1`, with below 0.7 µg/mL.
To `N#Cc1c(-c2ccc(Cl)cc2)ccnc1N1CCOCC1` belongs 3 µg/mL (≈ 10 µM); to `Cc1ccc(CNC(=O)COC(=O)COc2ccc(C#N)cc2)cc1`, above 50.8 µg/mL.
With `Cc1ccc2[nH]c(=O)c(COC(=O)C3CCCCC3)cc2c1`, the solubility (kinetic) was 2.9 µg/mL (≈ 9.69 µM).
To `CCOC(=O)C1CCCN(c2c(NCCc3cccc(C)c3)c(=O)c2=O)C1` (stereo unspecified) belongs 18 µg/mL (≈ 48.6 µM); to `Cc1ccsc1/C=C1\SC(=S)N(CC2CCCO2)C1=O` (stereo unspecified), below 0.7 µg/mL; to `O=c1[nH]c(/C=C/c2ccc([N+](=O)[O-])cc2)c([N+](=O)[O-])c(=O)[nH]1`, 24.9 µg/mL (≈ 81.8 µM).
To `COc1ccc(C)cc1Nc1nc(C)nc2sc(C)cc12` belongs 2.3 µg/mL (≈ 7.68 µM).
Then `COc1ccc(C)cc1NC(=O)CN1CCCC1c1ccc2c(c1)OCCCO2` (stereo unspecified), with 13.6 µg/mL (≈ 34.3 µM).
In the case of `CCOC(=O)CNC(=O)CSc1nc(-c2ccccc2)ns1`, the kinetic solubility is above 50.6 µg/mL.
To `O=C(O)/C=C/C(=O)NCCC(c1ccccc1)c1ccccc1` belongs above 46.4 µg/mL; to `CCOc1ccc(C(=O)C(C)OC(=O)c2cnc(C)cn2)cc1` (stereo unspecified), above 47.2 µg/mL; to `CC1CCN(Cc2nc(-c3ccc(Cl)cc3)no2)CC1`, 2.2 µg/mL (≈ 7.54 µM).
Then `O=C(NCc1ccc(F)cc1)C(Cc1ccccc1)n1cccc1` (stereo unspecified), with 32.2 µg/mL (≈ 99.9 µM); and `O=S(=O)(Cc1ccccc1)Nc1ccccc1Br`, with 40.6 µg/mL (≈ 124 µM).
Then `CCOC(=O)NC(N(O)c1cccc(Cl)c1)C(Cl)(Cl)Cl` (stereo unspecified), with 37.1 µg/mL (≈ 102 µM); and `CNC(=S)N1C2CCCC1CC(NC(=O)c1ccc(F)cc1)C2` (stereo unspecified), with 21.8 µg/mL (≈ 65 µM).
`O=C(CSc1cccc2cccnc12)N/N=C/c1ccncc1`: the kinetic solubility was above 48.4 µg/mL.
To `Cc1ccc(C)c(NC(=O)/C(C#N)=C/c2ccc[nH]2)c1` belongs 3.7 µg/mL (≈ 13.9 µM).
Then `COc1cccc(OCc2nc(-c3ccc(Br)o3)no2)c1`, with 7.1 µg/mL (≈ 20.2 µM); and `COc1cccc(C(=O)NCCCn2ccnc2)c1`, with above 38.9 µg/mL; and `COc1cc(SC)ccc1C(=O)OCC(=O)NC(=O)NC(C)C`, with 10.9 µg/mL (≈ 32 µM).
`O=C(Nc1ccc2c(c1)OCO2)C1CC(c2ccccc2O)=NO1` (stereo unspecified) came in with a kinetic solubility of 1.4 µg/mL (≈ 4.29 µM).
Then `COC(=O)c1ccc(NC(=O)c2ccc3nccnc3c2)cc1`, with 3.5 µg/mL (≈ 11.4 µM); and `O=C(/C=C/c1c(F)cccc1Cl)NCc1ccc2c(c1)OCO2`, with below 0.7 µg/mL.
Then `Cc1ccc(NC(=O)c2ccc(CSc3ccccn3)cc2)c(O)c1`, with 1 µg/mL (≈ 2.85 µM).
Then `Cc1ccc(Nc2nnc(SCC(=O)NCC3CCCO3)s2)cc1C` (stereo unspecified), with above 56.8 µg/mL.
In the case of `CSc1ccccc1NC(=O)Nc1cccc2ccccc12`, the kinetic solubility was below 0.3 µg/mL.
`O=C(Nc1cccc(F)c1)Nc1cccc(Cl)c1` had a solubility (kinetic) of 2 µg/mL (≈ 7.56 µM).
In turn, `Cc1cc([N+](=O)[O-])ccc1NC(=O)CCC(=O)N1CCCC1` showed a kinetic solubility above 45.8 µg/mL.
To `CN(C)c1cccc2c(S(=O)(=O)N3CCCC3)cccc12` belongs 34 µg/mL (≈ 112 µM); to `CN(C)CCCNc1oc(-c2ccc(Cl)cc2)nc1S(=O)(=O)c1ccccc1`, above 63 µg/mL.
Then `CN(C)/C(=N\S(=O)(=O)c1ccc(Br)cc1)c1ccccc1`, with 50.2 µg/mL (≈ 137 µM); and `O=C(Nc1ccc2[nH]ccc2c1)c1ccc(F)cc1`, with above 38.1 µg/mL.
Then `COc1ccc(CCN(C)c2ncnc3sccc23)cc1OC`, with above 49.4 µg/mL.
In the case of `CC(C)(C)C(=O)Nc1cccc(S(=O)(=O)NC2=NCCC2)c1`, the solubility (kinetic) is above 48.5 µg/mL.
Then `Cc1noc(C)c1C(=O)OCC(=O)Nc1ccc(C(N)=O)cc1`, with 42.2 µg/mL (≈ 133 µM); and `O=C1Nc2ccccc2C1=Nc1ccc(Br)cc1`, with 6.7 µg/mL (≈ 22.2 µM); and `S=C(NCC1CCCO1)N1CCN(Cc2ccccc2Cl)CC1` (stereo unspecified), with above 53.1 µg/mL.
Then `O=C(NC(=S)N1CCc2ccccc21)c1ccccc1Cl`, with 46.6 µg/mL (≈ 147 µM); and `O=S(=O)(Nc1ccccc1)c1ccc2c(c1)CCO2`, with 37.7 µg/mL (≈ 137 µM); and `Cc1ccc(S(=O)(=O)NC23CC4CC(CC(C4)C2)C3)cc1`, with 2.4 µg/mL (≈ 7.86 µM).
